Data taken from article PMC8150835, “An Smp43-Derived Short-Chain α-Helical Peptide Displays a Unique Sequence and Possesses Antimicrobial Activity against Both Gram-Positive and Gram-Negative Bacteria” (Toxins, 2021).
Where a SMILES comes first, the peptide text is derived from it.

Experiments:
Assay type in all cases: cell-based
[1] = system: Staphylococcus aureus ATCC29213; experiment: MIC determination (broth microdilution); details: MHB, 5 × 10^5 CFU/mL, peptide 0.625 to 40 μg/mL, 37 °C, 18 h, OD 630 nm
Method: (§1) The antimicrobial activities of the peptides were tested against S. aureus ATCC29213, E. faecalis ATCC29212, E. coli ATCC25922, K. pneumoniae ATCC700603, P. aeruginosa ATCC27853 and A. baumannii ATCC19606. All these strains were purchased from the China Center of Type Culture Collection (CCTCC).
(§2) The antimicrobial activities of the peptides were determined as previously described. Briefly, the bacteria were incubated at 37 °C and 150 rpm until the log phase of growth. Next, the bacteria were diluted with Mueller-Hinton broth (MHB, Oxoid, UK) and prepared in a clear round-bottom polypropylene 96-well microtiter plate to achieve a final concentration of 5 × 10^5 colony-forming unit (CFU)/mL. Twofold serial dilutions of the peptides were added into each well with the concentrations ranging from 0.625 to 40 μg/mL. The mixed peptides and cells were cultured at 37 °C and 150 rpm for 18 h, and the optical density (OD) was measured at 630 nm. The minimum inhibitory concentration was defined as the lowest peptide concentration with no detectable bacterial growth.

[2] = system: Escherichia coli ATCC25922; experiment: MIC determination (broth microdilution); details: MHB, 5 × 10^5 CFU/mL, peptide 0.625 to 40 μg/mL, 37 °C, 18 h, OD 630 nm
Method: as §1, §2

[3] = system: Acinetobacter baumannii ATCC19606; experiment: MIC determination (broth microdilution); details: MHB, 5 × 10^5 CFU/mL, peptide 0.625 to 40 μg/mL, 37 °C, 18 h, OD 630 nm
Method: as §1, §2

[4] = system: Klebsiella pneumoniae ATCC700603; experiment: MIC determination (broth microdilution); details: MHB, 5 × 10^5 CFU/mL, peptide 0.625 to 40 μg/mL, 37 °C, 18 h, OD 630 nm
Method: as §1, §2

[5] = system: Enterococcus faecalis ATCC29212; experiment: MIC determination (broth microdilution); details: MHB, 5 × 10^5 CFU/mL, peptide 0.625 to 40 μg/mL, 37 °C, 18 h, OD 630 nm
Method: as §1, §2

[6] = system: Pseudomonas aeruginosa ATCC27853; experiment: MIC determination (broth microdilution); details: MHB, 5 × 10^5 CFU/mL, peptide 0.625 to 40 μg/mL, 37 °C, 18 h, OD 630 nm
Method: as §1, §2

human red blood cells = experiment: Hemolytic activity determination; details: 2% (v/v) hRBCs, peptide 12.5-200 μg/mL, 37 °C, 1 h, absorbance 540 nm; 1% Triton X-100 = 100%; three independent experiments
Method: The hemolytic activities of the peptides were determined against human red blood cells (hRBCs). Briefly, fresh hRBCs anticoagulated with sodium citrate were rinsed with 0.9% sodium chloride by centrifugation (1000× g, 5 min). Then, the cells were diluted to a final concentration of 2% (v/v) and prepared in a clear 96-well polypropylene microtiter plate. Next, the samples were mixed with a series of concentrations of the peptide (12.5, 25, 50, 100 and 200 μg/mL) and incubated at 37 °C for 1 h. After that, the samples were centrifuged (2000× g, 10 min), and the absorbances of the supernatants were measured at 540 nm to evaluate the release of hemoglobin. HRBCs treated with 1% Triton X-100 or 0.9% sodium chloride were taken as 100% and 0% hemolysis, respectively.

SMILES	MIC [1] [µg/mL]	MIC [2] [µg/mL]	MIC [3] [µg/mL]	MIC [4] [µg/mL]	MIC [5] [µg/mL]	MIC [6] [µg/mL]	HC10: the concentration of the peptide that causes 10% hemolysis of human red blood cells (human red blood cells) [µg/mL]
CC[C@H](C)[C@H](NC(=O)[C@H](CCCCN)NC(=O)[C@H](CCC(=O)O)NC(=O)[C@H](C)NC(=O)[C@@H](NC(=O)[C@H](Cc1ccccc1)NC(=O)[C@H](CC(N)=O)NC(=O)[C@H](CCCCN)NC(=O)[C@H](C)NC(=O)[C@H](C)N)C(C)C)C(=O)NCC(=O)N[C@@H](C)C(=O)N[C@H](C(=O)N1CCC[C@H]1C(N)=O)[C@@H](C)O [Smp43(29-42)] (H-AAKNFVAEKIGATP-NH2)	> 40	> 40	> 40	> 40	> 40	> 40	> 200
CC[C@H](C)[C@H](NC(=O)[C@H](CCCCN)NC(=O)CN)C(=O)N[C@@H](Cc1c[nH]c2ccccc12)C(=O)N[C@@H](CC(N)=O)C(=O)N[C@@H](CO)C(=O)N[C@@H](CCC(=O)O)C(=O)N1CCC[C@H]1C(=O)N[C@H](C(=O)N[C@@H](CCCCN)C(=O)N[C@@H](C)C(=O)N[C@@H](CC(C)C)C(=O)N[C@@H](CCCCN)C(=O)N[C@@H](CO)C(N)=O)C(C)C [Smp43(11-24)] (H-GKIWNSEPVKALKS-NH2)	> 40	> 40	> 40	> 40	> 40	> 40	> 200
CC[C@H](C)[C@H](NC(=O)[C@H](CCCCN)NC(=O)CNC(=O)[C@H](C)NC(=O)[C@@H](N)[C@@H](C)O)C(=O)N[C@@H](Cc1c[nH]c2ccccc12)C(=O)N[C@@H](CC(N)=O)C(=O)N[C@@H](CO)C(=O)N[C@@H](CCC(=O)O)C(=O)N1CCC[C@H]1C(=O)N[C@H](C(=O)N[C@@H](CCCCN)C(=O)N[C@@H](C)C(=O)N[C@@H](CC(C)C)C(N)=O)C(C)C [Smp43(9-22)] (H-TAGKIWNSEPVKAL-NH2)	> 40	> 40	> 40	> 40	> 40	> 40	> 200
CC[C@H](C)[C@H](NC(=O)[C@H](CCCCN)NC(=O)CNC(=O)[C@H](C)NC(=O)[C@@H](NC(=O)[C@H](CCCCN)NC(=O)[C@H](CCCCN)NC(=O)[C@@H](NC(=O)[C@@H](N)Cc1c[nH]c2ccccc12)[C@@H](C)CC)[C@@H](C)O)C(=O)N[C@@H](Cc1c[nH]c2ccccc12)C(=O)N[C@@H](CC(N)=O)C(=O)N[C@@H](CO)C(=O)N[C@@H](CCC(=O)O)C(=O)N1CCC[C@H]1C(N)=O [Smp43(5-18)] (H-WIKKTAGKIWNSEP-NH2)	> 40	> 40	> 40	> 40	> 40	> 40	> 200
CC(C)C[C@H](NC(=O)[C@H](C)N)C(=O)N[C@@H](CCCCN)C(=O)N[C@@H](CO)C(=O)N[C@@H](CCC(N)=O)C(=O)N[C@@H](C)C(=O)N[C@@H](CC(C)C)C(=O)N[C@@H](CC(N)=O)C(=O)N[C@@H](C)C(=O)N[C@@H](C)C(=O)N[C@@H](CCCCN)C(=O)N[C@@H](CC(N)=O)C(=O)N[C@@H](Cc1ccccc1)C(=O)N[C@H](C(N)=O)C(C)C [Smp43(21-34)] (H-ALKSQALNAAKNFV-NH2)	> 40	> 40	> 40	> 40	> 40	> 40	> 200
CC(C)C[C@H](NC(=O)[C@H](C)NC(=O)[C@H](CCC(N)=O)NC(=O)[C@H](CO)NC(=O)[C@H](CCCCN)NC(=O)[C@H](CC(C)C)NC(=O)[C@H](C)NC(=O)[C@H](CCCCN)NC(=O)[C@@H](N)C(C)C)C(=O)N[C@@H](CC(N)=O)C(=O)N[C@@H](C)C(=O)N[C@@H](C)C(=O)N[C@@H](CCCCN)C(=O)N[C@@H](CC(N)=O)C(N)=O [Smp43(19-32)] (H-VKALKSQALNAAKN-NH2)	> 40	> 40	> 40	> 40	> 40	> 40	> 200
CC(C)C[C@H](NC(=O)[C@H](C)NC(=O)[C@H](CCC(N)=O)NC(=O)[C@H](CO)NC(=O)[C@H](CCCCN)NC(=O)[C@H](CC(C)C)NC(=O)[C@H](C)NC(=O)[C@H](CCCCN)NC(=O)[C@@H](NC(=O)[C@@H]1CCCN1C(=O)[C@@H](N)CCC(=O)O)C(C)C)C(=O)N[C@@H](CC(N)=O)C(=O)N[C@@H](C)C(=O)N[C@@H](C)C(N)=O [Smp43(17-30)] (H-EPVKALKSQALNAA-NH2)	> 40	> 40	> 40	> 40	> 40	> 40	> 200
CC[C@H](C)[C@H](NC(=O)[C@H](CCCCN)NC(=O)CNC(=O)[C@H](C)NC(=O)[C@@H](NC(=O)[C@H](CCCCN)NC(=O)[C@H](CCCCN)NC(=O)[C@@H](NC(=O)[C@H](Cc1c[nH]c2ccccc12)NC(=O)[C@H](CC(=O)O)NC(=O)[C@@H](N)Cc1c[nH]c2ccccc12)[C@@H](C)CC)[C@@H](C)O)C(=O)N[C@@H](Cc1c[nH]c2ccccc12)C(=O)N[C@@H](CC(N)=O)C(=O)N[C@@H](CO)C(N)=O [Smp43(3-16)] (H-WDWIKKTAGKIWNS-NH2)	> 40	> 40	> 40	> 40	> 40	> 40	> 200
CC[C@H](C)[C@H](NC(=O)[C@H](CCCCN)NC(=O)[C@H](CCC(=O)O)NC(=O)[C@H](C)NC(=O)[C@@H](NC(=O)[C@H](Cc1ccccc1)NC(=O)[C@H](CC(N)=O)NC(=O)[C@H](CCCCN)NC(=O)[C@H](C)NC(=O)[C@H](C)NC(=O)[C@H](CC(N)=O)NC(=O)[C@@H](N)CC(C)C)C(C)C)C(=O)NCC(=O)N[C@@H](C)C(N)=O [Smp43(27-40)] (H-LNAAKNFVAEKIGA-NH2)	> 40	> 40	> 40	> 40	> 40	> 40	> 200
CC[C@H](C)[C@H](NC(=O)[C@H](CCCCN)NC(=O)CNC(=O)[C@H](C)NC(=O)[C@@H](NC(=O)[C@H](CCCCN)NC(=O)[C@@H](N)CCCCN)[C@@H](C)O)C(=O)N[C@@H](Cc1c[nH]c2ccccc12)C(=O)N[C@@H](CC(N)=O)C(=O)N[C@@H](CO)C(=O)N[C@@H](CCC(=O)O)C(=O)N1CCC[C@H]1C(=O)N[C@H](C(=O)N[C@@H](CCCCN)C(N)=O)C(C)C [Smp43(7-20)] (H-KKTAGKIWNSEPVK-NH2)	> 40	> 40	> 40	> 40	> 40	> 40	> 200
CC(C)C[C@H](NC(=O)[C@H](C)NC(=O)[C@H](CCC(N)=O)NC(=O)[C@H](CO)NC(=O)[C@@H](N)CCCCN)C(=O)N[C@@H](CC(N)=O)C(=O)N[C@@H](C)C(=O)N[C@@H](C)C(=O)N[C@@H](CCCCN)C(=O)N[C@@H](CC(N)=O)C(=O)N[C@@H](Cc1ccccc1)C(=O)N[C@H](C(=O)N[C@@H](C)C(=O)N[C@@H](CCC(=O)O)C(N)=O)C(C)C [Smp43(23-36)] (H-KSQALNAAKNFVAE-NH2)	> 40	> 40	> 40	> 40	> 40	> 40	> 200
